Laboratory results: PubChem BioAssay (NCI)
Where “and” joins values, the source holds several entries; their conditions need not be identical. Equal values may be shown once.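 Step 1: Grow cells in 96-well plates. Step 2: Expose to compound for 48 hours at 5 concentrations. Step 3: Interpolate endpoints linearly; if unreached, use highest concentration. Abbreviation: GI50, concentration required for 50% inhibition of growth. TGI marks complete inhibition of growth.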

Columns and labels:
Assay in all cases: NCI-60 cell line screen, 48 h
K-562 leukemia = system: K-562 leukemia
SF-268 CNS = system: SF-268 CNS
SN12C renal = system: SN12C renal
HT29 colon = system: HT29 colon
A498 renal = system: A498 renal
SF-539 CNS = system: SF-539 CNS
RXF 393 renal = system: RXF 393 renal
OVCAR-4 ovarian = system: OVCAR-4 ovarian
786-0 renal = system: 786-0 renal
OVCAR-5 ovarian = system: OVCAR-5 ovarian
M14 melanoma = system: M14 melanoma
DU-145 prostate = system: DU-145 prostate
PC-3 prostate = system: PC-3 prostate
OVCAR-3 ovarian = system: OVCAR-3 ovarian
NCI-H522 lung = system: NCI-H522 lung
SF-295 CNS = system: SF-295 CNS
MOLT-4 leukemia = system: MOLT-4 leukemia
A549 NSCLC = system: A549 NSCLC
HOP-92 NSCLC = system: HOP-92 NSCLC
HL-60(TB) leukemia = system: HL-60(TB) leukemia
IGROV1 ovarian = system: IGROV1 ovarian
MDA-MB-435 = system: MDA-MB-435
NCI/ADR-RES ovarian = system: NCI/ADR-RES ovarian
UACC-257 melanoma = system: UACC-257 melanoma
HOP-62 NSCLC = system: HOP-62 NSCLC
OVCAR-8 ovarian = system: OVCAR-8 ovarian
BT-549 breast = system: BT-549 breast
UO-31 renal = system: UO-31 renal
SR leukemia = system: SR leukemia
CAKI-1 renal = system: CAKI-1 renal
KM12 colon = system: KM12 colon
NCI-H460 lung = system: NCI-H460 lung
EKVX NSCLC = system: EKVX NSCLC
U251 CNS = system: U251 CNS
SK-MEL-28 melanoma = system: SK-MEL-28 melanoma
SW-620 colon = system: SW-620 colon
RPMI-8226 leukemia = system: RPMI-8226 leukemia
NCI-H23 lung = system: NCI-H23 lung
HS 578T breast = system: HS 578T breast
SK-OV-3 ovarian = system: SK-OV-3 ovarian
MCF7 breast = system: MCF7 breast
HCC-2998 colon = system: HCC-2998 colon
HCT-116 colon = system: HCT-116 colon
COLO 205 colon = system: COLO 205 colon
SK-MEL-5 melanoma = system: SK-MEL-5 melanoma
SK-MEL-2 melanoma = system: SK-MEL-2 melanoma
HCT-15 colon = system: HCT-15 colon
TK-10 renal = system: TK-10 renal
NCI-H226 lung = system: NCI-H226 lung
CCRF-CEM leukemia = system: CCRF-CEM leukemia
LOX IMVI melanoma = system: LOX IMVI melanoma
MALME-3M melanoma = system: MALME-3M melanoma
UACC-62 melanoma = system: UACC-62 melanoma
ACHN renal = system: ACHN renal

Compound: Cc1cc(C)cc(Nc2ccc([N+](=O)[O-])c(NCCN3CCOCC3)n2)c1
- TGI (K-562 leukemia): > 100000 nM
- TGI (SF-268 CNS): 85200 nM
- GI50 (SN12C renal): 70.6 nM
- TGI (SN12C renal): > 100000 nM
- GI50 (HT29 colon): 2.19 nM and 18.8 nM
- TGI (HT29 colon): > 100000 nM
- GI50 (A498 renal): 0.606 nM
- TGI (A498 renal): 9.15 nM and 67.6 nM
- GI50 (SF-539 CNS): 1.6 nM
- TGI (SF-539 CNS): 5.87 nM and 56.4 nM
- GI50 (RXF 393 renal): 20.8 nM
- TGI (RXF 393 renal): 48800 nM
- GI50 (OVCAR-4 ovarian): 2 nM
- TGI (OVCAR-4 ovarian): > 100000 nM
- TGI (786-0 renal): 18800 nM
- GI50 (OVCAR-5 ovarian): 57.6 nM and 36.1 nM
- TGI (OVCAR-5 ovarian): > 100000 nM
- GI50 (M14 melanoma): 1.62 nM
- TGI (DU-145 prostate): > 100000 nM
- GI50 (PC-3 prostate): 1.77 nM and 10.6 nM
- TGI (PC-3 prostate): > 100000 nM
- GI50 (OVCAR-3 ovarian): 0.367 nM
- TGI (OVCAR-3 ovarian): 1.92 nM
- GI50 (NCI-H522 lung): 0.235 nM
- GI50 (SF-295 CNS): 0.446 nM
- TGI (SF-295 CNS): 25800 nM
- TGI (MOLT-4 leukemia): > 100000 nM
- GI50 (A549 NSCLC): 2.86 nM and 20 nM
- TGI (A549 NSCLC): > 100000 nM
- TGI (HOP-92 NSCLC): 24300 nM
- GI50 (HL-60(TB) leukemia): 2.61 nM
- TGI (HL-60(TB) leukemia): 9.26 nM
- TGI (IGROV1 ovarian): > 100000 nM
- TGI (MDA-MB-435): 11.5 nM
- GI50 (NCI/ADR-RES ovarian): 0.646 nM
- GI50 (UACC-257 melanoma): > 100000 nM
- TGI (UACC-257 melanoma): > 100000 nM
- TGI (HOP-62 NSCLC): 44900 nM
- GI50 (OVCAR-8 ovarian): 6 nM and 36.8 nM
- TGI (OVCAR-8 ovarian): > 100000 nM
- TGI (BT-549 breast): > 100000 nM
- TGI (UO-31 renal): > 100000 nM
- TGI (SR leukemia): > 100000 nM
- GI50 (CAKI-1 renal): 1.63 nM
- TGI (CAKI-1 renal): > 100000 nM
- GI50 (KM12 colon): 0.947 nM
- TGI (KM12 colon): > 100000 nM
- TGI (NCI-H460 lung): > 100000 nM
- TGI (EKVX NSCLC): > 100000 nM
- TGI (U251 CNS): > 100000 nM
- GI50 (SK-MEL-28 melanoma): 672 nM and 2750 nM
- TGI (SK-MEL-28 melanoma): > 100000 nM
- GI50 (SW-620 colon): 1.76 nM and 14.7 nM
- TGI (SW-620 colon): > 100000 nM
- GI50 (RPMI-8226 leukemia): 4.55 nM and 36.6 nM
- TGI (RPMI-8226 leukemia): > 100000 nM
- GI50 (NCI-H23 lung): 7.39 nM and 27.5 nM
- TGI (NCI-H23 lung): > 100000 nM
- GI50 (HS 578T breast): 3.06 nM and 16.5 nM
- TGI (HS 578T breast): 48400 nM
- TGI (SK-OV-3 ovarian): > 100000 nM
- GI50 (MCF7 breast): 0.327 nM
- TGI (MCF7 breast): > 100000 nM
- GI50 (HCC-2998 colon): 4.35 nM and 28.7 nM
- TGI (HCC-2998 colon): > 100000 nM
- GI50 (HCT-116 colon): 2.22 nM and 14.6 nM
- TGI (HCT-116 colon): > 100000 nM
- GI50 (COLO 205 colon): 2.3 nM
- TGI (COLO 205 colon): 7.95 nM
- GI50 (SK-MEL-5 melanoma): 0.82 nM
- TGI (SK-MEL-5 melanoma): 33.2 nM and 256 nM
- TGI (SK-MEL-2 melanoma): > 100000 nM
- GI50 (HCT-15 colon): 0.928 nM
- TGI (HCT-15 colon): > 100000 nM
- GI50 (TK-10 renal): 13000 nM
- TGI (TK-10 renal): > 100000 nM
- GI50 (NCI-H226 lung): 36.5 nM and 61.4 nM
- TGI (NCI-H226 lung): > 100000 nM
- GI50 (CCRF-CEM leukemia): 3.92 nM and 33.1 nM
- TGI (CCRF-CEM leukemia): > 100000 nM
- GI50 (LOX IMVI melanoma): 15.9 nM and 11.4 nM
- TGI (LOX IMVI melanoma): > 100000 nM
- GI50 (MALME-3M melanoma): 16000 nM
- TGI (MALME-3M melanoma): > 100000 nM
- TGI (UACC-62 melanoma): > 100000 nM
- GI50 (ACHN renal): 14.3 nM and 12 nM
- TGI (ACHN renal): > 100000 nM
